Assay results published in PubChem BioAssay AID330 (DTP/NCI, 2004).
Values joined by “and” are separate entries in the source; they are usually repeats but may differ in a detail not shown here. Equal values may be shown once. Inconclusive results and toxic doses are left out.

System: P388 leukemia ip, CD2F1 mice, survival T/C
Assay: NCI In Vivo Anticancer Drug Screen. Data for tumor model P388 Leukemia (intraperitoneal) in CD2F1 (CDF1) mice
Settings: endpoint: median survival time, higher = longer survival
Outline: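 Mice carrying the transplanted tumor received test compound or vehicle. Survival was recorded in each group, and the value is the treated-group measurement divided by that of the vehicle-treated control group.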

[1] = dose: 50.0 mg/kg/injection, schedule: Q01DX009 (ip), vehicle: Klucel (hydroxypropylcellulose) (HPC)
[2] = dose: 50.0 mg/kg/injection, schedule: Q01DX005 (ip), vehicle: saline with Tween-80
[3] = dose: 100.0 mg/kg/injection, schedule: Q01DX005 (ip), vehicle: saline with Tween-80
[4] = dose: 200.0 mg/kg/injection, schedule: Q01DX005 (ip), vehicle: saline with Tween-80
[5] = dose: 100.0 mg/kg/injection, schedule: Q04DX003 (ip), vehicle: saline
[6] = dose: 200.0 mg/kg/injection, schedule: Q04DX003 (ip), vehicle: saline
[7] = dose: 400.0 mg/kg/injection, schedule: Q04DX003 (ip), vehicle: saline
[8] = dose: 12.5 mg/kg/injection, schedule: Q01DX009 (ip), vehicle: distilled water + Tween-80
[9] = dose: 25.0 mg/kg/injection, schedule: Q01DX009 (ip), vehicle: distilled water + Tween-80
[10] = dose: 50.0 mg/kg/injection, schedule: Q01DX009 (ip), vehicle: distilled water + Tween-80
[11] = dose: 100.0 mg/kg/injection, schedule: Q01DX009 (ip), vehicle: distilled water + Tween-80
[12] = dose: 12.5 mg/kg/injection, schedule: Q01DX009 (ip), vehicle: Klucel (hydroxypropylcellulose) (HPC)
[13] = dose: 25.0 mg/kg/injection, schedule: Q01DX009 (ip), vehicle: Klucel (hydroxypropylcellulose) (HPC)
[14] = dose: 60.0 mg/kg/injection, schedule: Q01DX005 (ip), vehicle: saline with Tween-80
[15] = dose: 120.0 mg/kg/injection, schedule: Q01DX005 (ip), vehicle: saline with Tween-80
[16] = dose: 240.0 mg/kg/injection, schedule: Q01DX005 (ip), vehicle: saline with Tween-80
[17] = dose: 25.0 mg/kg/injection, schedule: Q01DX005 (ip), vehicle: saline with Tween-80

## O=C(O)CNO
[1]
  T/C: 101 % of control
dose: 100.0 mg/kg/injection, schedule: Q01DX009 (ip), vehicle: Klucel (hydroxypropylcellulose) (HPC)
  T/C: 105 % of control
dose: 200.0 mg/kg/injection, schedule: Q01DX009 (ip), vehicle: Klucel (hydroxypropylcellulose) (HPC)
  T/C: 104 % of control
dose: 400.0 mg/kg/injection, schedule: Q01DX009 (ip), vehicle: Klucel (hydroxypropylcellulose) (HPC)
  T/C: 110 % of control

## Nc1nc(N)nc(CCc2nc(N)nc(N)n2)n1
dose: 50.0 mg/kg/injection, schedule: Q01DX009 (ip), vehicle: saline
  T/C: 103 % of control
dose: 100.0 mg/kg/injection, schedule: Q01DX009 (ip), vehicle: saline
  T/C: 88 % of control
dose: 200.0 mg/kg/injection, schedule: Q01DX009 (ip), vehicle: saline
  T/C: 98 % of control

## Cc1ccc(NC(=O)CCC(=O)C(C)C(=O)c2ccccc2)c(C)c1 (stereo unspecified)
[2]
  T/C: 99 % of control
[3]
  T/C: 97 % of control
[4]
  T/C: 97 % of control

## COSc1cccc(C(F)(F)F)c1
[5]
  T/C: 100 % of control
[6]
  T/C: 100 % of control
[7]
  T/C: 97 % of control

## CCOC(=O)/C(C#N)=C/Nc1cc(C(=O)OCC)cc2c(OC)c(OC)ccc12
[8]
  T/C: 97 % of control
[9]
  T/C: 93 % of control
[10]
  T/C: 106 % of control
[11]
  T/C: 106 % of control
dose: 200.0 mg/kg/injection, schedule: Q01DX009 (ip), vehicle: distilled water + Tween-80
  T/C: 110 % of control

## O=[N+]([O-])c1ccc(/C=N/O)s1
[12]
  T/C: 109 % of control
[13]
  T/C: 101 % of control
[1]
  T/C: 108 % of control

## O=P1(c2ccccc2)CCCCN1 (stereo unspecified)
[5]
  T/C: 104 % of control
[6]
  T/C: 110 % of control
[7]
  T/C: 110 % of control

## O=[N+]([O-])C(Br)(CO)CCC(Br)(CO)[N+](=O)[O-] (stereo unspecified)
dose: 6.25 mg/kg/injection, schedule: Q01DX001 (ip), vehicle: Klucel (hydroxypropylcellulose) (HPC)
  T/C: 111 % of control
dose: 12.5 mg/kg/injection, schedule: Q01DX001 (ip), vehicle: Klucel (hydroxypropylcellulose) (HPC)
  T/C: 104 % of control
dose: 25.0 mg/kg/injection, schedule: Q01DX001 (ip), vehicle: Klucel (hydroxypropylcellulose) (HPC)
  T/C: 107 % of control

## Nc1nc2ncc([N+](=O)[O-])cc2c(=O)[nH]1
[2]
  T/C: 102 % of control
[3]
  T/C: 100 % of control

## O=C(CN1C(=O)c2ccccc2C1=O)C(O)CN1C(=O)c2ccccc2C1=O (stereo unspecified)
[2]
  T/C: 94 % of control
[3]
  T/C: 94 % of control
[4]
  T/C: 100 % of control

## Cc1[nH]n(-c2ccc(S(=O)(=O)O)cc2)c(=O)c1N=Nc1ccccc1
[14]
  T/C: 96 % of control
[15]
  T/C: 100 % of control
[16]
  T/C: 90 % of control

## CS/C(=N\N=C(/C)c1ccccn1)N/N=C(\SC)N(C)c1ccccc1
[2]
  T/C: 108 % of control
[3]
  T/C: 104 % of control
[4]
  T/C: 110 % of control

## COc1cc(N(CCCl)CCCl)ccc1C=Nc1ccccc1C(=O)O
dose: 12.37 mg/kg/injection, schedule: Q04DX003 (ip), vehicle: saline with Tween-80
  T/C: 195 % of control
dose: 18.75 mg/kg/injection, schedule: Q04DX003 (ip), vehicle: saline with Tween-80
  T/C: 181 % of control and 268 % of control

## Cc1cccc(C)c1NC(=O)NNC(N)=S
dose: 50.0 mg/kg/injection, schedule: Q01DX009 (ip), vehicle: saline with Tween-80
  T/C: 97 % of control

## O=C(NCN1CCCCC1)c1ccccc1
[17]
  T/C: 93 % of control and 95 % of control
[2]
  T/C: 98 % of control and 101 % of control and 105 % of control
[3]
  T/C: 102 % of control and 104 % of control
[4]
  T/C: 102 % of control and 113 % of control

## CS(=O)(=O)OCC#CCOS(C)(=O)=O
dose: 1.56 mg/kg/injection, schedule: Q01DX009 (ip), vehicle: Klucel (hydroxypropylcellulose) (HPC)
  T/C: 109 % of control
dose: 3.12 mg/kg/injection, schedule: Q01DX009 (ip), vehicle: Klucel (hydroxypropylcellulose) (HPC)
  T/C: 120 % of control

## O=C(Nc1ccc(CSc2ccc(Cl)cc2)o1)N1CCOCC1
[2]
  T/C: 107 % of control
[3]
  T/C: 99 % of control
[4]
  T/C: 98 % of control

## O=C1C=C(NCCNCCO)C(=O)c2ccccc21
dose: 6.25 mg/kg/injection, schedule: Q01DX009 (ip), vehicle: distilled water + Tween-80
  T/C: 96 % of control
[8]
  T/C: 98 % of control and 95 % of control
[9]
  T/C: 109 % of control and 95 % of control
[10]
  T/C: 111 % of control and 94 % of control
[11]
  T/C: 88 % of control and 97 % of control

## CCOC(=O)N(C)C(=O)CN(C=O)c1ncc([N+](=O)[O-])s1
dose: 100.0 mg/kg/injection, schedule: Q01DX001 (ip), vehicle: saline
  T/C: 101 % of control
dose: 200.0 mg/kg/injection, schedule: Q01DX001 (ip), vehicle: saline
  T/C: 101 % of control
dose: 400.0 mg/kg/injection, schedule: Q01DX001 (ip), vehicle: saline
  T/C: 100 % of control

## C=CCn1c(=O)oc2ccc(Cl)cc21
dose: 10.0 mg/kg/injection, schedule: Q01DX009 (ip), vehicle: saline with Tween-80
  T/C: 104 % of control
dose: 20.0 mg/kg/injection, schedule: Q01DX009 (ip), vehicle: saline with Tween-80
  T/C: 104 % of control
dose: 40.0 mg/kg/injection, schedule: Q01DX009 (ip), vehicle: saline with Tween-80
  T/C: 104 % of control

## Cc1cc(C)cc(C(=O)NC(=C(NC(=O)c2cc(C)cc(C)c2)c2ccncc2)c2ccncc2)c1 (mixture of isomers)
dose: 12.5 mg/kg/injection, schedule: Q01DX005 (ip), vehicle: saline with Tween-80
  T/C: 96 % of control
[17]
  T/C: 90 % of control
[2]
  T/C: 86 % of control and 90 % of control

## O=C1C=CC(=O)C2=C1C1c3ccccc3C2c2ccccc21
dose: 50.0 mg/kg/injection, schedule: Q01DX005 (ip), vehicle: Klucel (hydroxypropylcellulose) (HPC)
  T/C: 101 % of control
dose: 100.0 mg/kg/injection, schedule: Q01DX005 (ip), vehicle: Klucel (hydroxypropylcellulose) (HPC)
  T/C: 110 % of control

## C=CCC(C(=O)OC)c1ccc(F)cc1 (stereo unspecified)
dose: 0.06 mg/kg/injection, schedule: Q01DX009 (ip), vehicle: saline
  T/C: 111 % of control
dose: 0.13 mg/kg/injection, schedule: Q01DX009 (ip), vehicle: saline
  T/C: 102 % of control
dose: 0.25 mg/kg/injection, schedule: Q01DX009 (ip), vehicle: saline
  T/C: 101 % of control
dose: 1.0 mg/kg/injection, schedule: Q01DX009 (ip), vehicle: saline
  T/C: 88 % of control

## CC(CN)OS(=O)(=O)O (stereo unspecified)
dose: 100.0 mg/kg/injection, schedule: Q04DX003 (ip), vehicle: saline with Tween-80
  T/C: 100 % of control
dose: 200.0 mg/kg/injection, schedule: Q04DX003 (ip), vehicle: saline with Tween-80
  T/C: 100 % of control
dose: 400.0 mg/kg/injection, schedule: Q04DX003 (ip), vehicle: saline with Tween-80
  T/C: 95 % of control

## O=C(Nc1cccc2c(NC(=O)N3CCCCC3)cccc12)N1CCCCC1
dose: 15.0 mg/kg/injection, schedule: Q01DX005 (ip), vehicle: saline with Tween-80
  T/C: 94 % of control
dose: 30.0 mg/kg/injection, schedule: Q01DX005 (ip), vehicle: saline with Tween-80
  T/C: 93 % of control
[15]
  T/C: 86 % of control
[16]
  T/C: 100 % of control

## CCNC(=O)C12CCC(C)(C(=O)O1)C2(C)C (stereo unspecified)
dose: 60.0 mg/kg/injection, schedule: Q01DX005 (ip), vehicle: saline
  T/C: 93 % of control
dose: 120.0 mg/kg/injection, schedule: Q01DX005 (ip), vehicle: saline
  T/C: 98 % of control
dose: 240.0 mg/kg/injection, schedule: Q01DX005 (ip), vehicle: saline
  T/C: 101 % of control

## CC(=O)OCC1OC(Nc2[nH]c(=O)nc3occc23)C(OC(C)=O)C(OC(C)=O)C1OC(C)=O (stereo unspecified)
dose: 100.0 mg/kg/injection, schedule: Q01DX001 (ip), vehicle: saline with Tween-80
  T/C: 107 % of control
dose: 200.0 mg/kg/injection, schedule: Q01DX001 (ip), vehicle: saline with Tween-80
  T/C: 99 % of control
dose: 400.0 mg/kg/injection, schedule: Q01DX001 (ip), vehicle: saline with Tween-80
  T/C: 97 % of control

## CC(Br)(C(Br)c1ccccc1)[N+](=O)[O-] (stereo unspecified)
[13]
  T/C: 110 % of control
[1]
  T/C: 108 % of control

## CC(C)CC(NC(=O)C(C)N)C(=O)OC(C)(C)C (stereo unspecified)
[2]
  T/C: 101 % of control
[3]
  T/C: 102 % of control
[4]
  T/C: 96 % of control

## COC(=O)c1nn2c(=O)n(C(C)=O)c3ccccc3c2c1C(=O)OC
[14]
  T/C: 108 % of control
[15]
  T/C: 109 % of control
[16]
  T/C: 108 % of control

## Cc1c([N+](=O)[O-])oc2cc3c(cc12)CCCC3
[14]
  T/C: 91 % of control
[15]
  T/C: 93 % of control
[16]
  T/C: 94 % of control

## Cc1ccc(C(C)(C)C[P+](C)(c2ccccc2)c2ccccc2)cc1
[12]
  T/C: 105 % of control
[13]
  T/C: 103 % of control
